Test results from patent publication US20110311601A1, “ANTIMICROBIAL MEDICAL DEVICES” (priority 2010, published 2011).
Where no end group is shown, it is not given here.

Legend:
Assay in all cases: micro-dilution assay (MBC, LD90)
Type in all cases: cell-based
[1] = tested on: Acinetobacter johnsonii ATCC 17909
Procedure: (§1) The anti-bacterial activity of hβD2 was tested by a micro-dilution assay. Bacteria and fungi were streaked from a glycerol stock onto a Brain Heart Infusion (BHI) agar plate (3.7% w/v BHI Bouillon, 1.5% w/v Agar), grown overnight at 37° C. and 30° C., respectively and subsequently used to inoculate 40 ml of 3.7% w/v BHI Bouillon without any antibiotics in 100 ml flasks. Fresh cells were harvested by centrifugation at 16000 rpm for 10 min and washed twice with 10 mM sodium phosphate buffer, pH 7.2. The optical density was adjusted to 10^4 cells/ml. For anti-bacterial testing hβD2 was incubated in one well of a microtiter plate containing 100 μl of the bacterial suspension. Therefore, ten microlitres of hβD2 solution with a range of final concentrations tested from 0.0125 up to and including 100 mg/l was added to the bacterial suspension and incubated at 37° C. and 30° C., respectively for 2 h before colony forming units were determined. Colony forming units (CFU) were determined after plating 100 μl of a 1:100 dilution of the bacterial suspension on petri dishes with BHI medium and incubating them overnight at 37° C. For every group of the hβD2 added samples and the controls, 5 independent anti-bacterial assays were performed. A control (NC) of bacterial growth was examined for every independent assay. The number of CFU on the control (consisting of a single petri dish) was set to 0% bactericidal activity. The reduction in the CFU resulting from the anti-bacterial activity of hβD2 was related to the absolute CFU of the control within every independent assay. This value, given as a percentage of the bacterial “killing” activity, was used to describe the antibacterial activity. This kind of normalisation of the antibacterial data was performed for every experimental group.
(§2) The antibacterial activity of hβD2 were given either as minimum bactericidal concentration (MBC), i.e., the minimum concentration of hβD2 in μg/ml which is required to kill 99.9% of the bacteria or fungi or as lethal dose (LD90), i.e., the concentration of hβD2 in μg/ml which is lethal for 90% of bacteria or fungi.

[2] = tested on: Proteus vulgaris Mero 103/067 (wild-type)
Procedure: as §1, §2

[3] = tested on: Proteus mirabilis ATCC 21100
Procedure: as §1, §2

[4] = tested on: E. coli (ESBL 9) UR 2217/03 (wild-type)
Procedure: as §1, §2

[5] = tested on: Pseudomonas aeruginosa ATCC 39324
Procedure: as §1, §2

[6] = tested on: Stenotrophomonas maltophilia ATCC 10257
Procedure: as §1, §2

[7] = tested on: Candida glabrata Va 27966/02 (wild-type)
Procedure: as §1, §2

[8] = tested on: Candida tropicalis ATCC 750
Procedure: as §1, §2

[9] = tested on: Issatchenkia orientalis ATCC 6258
Procedure: as §1, §2

[10] = tested on: Serratia marcescens Mero 103/013 (wild-type)
Procedure: as §1, §2

[11] = tested on: Proteus mirabilis (ESBL 8) (wild-type)
Procedure: as §1, §2

[12] = tested on: Klebsiella pneumoniae (ESBL) CF 7 (wild-type)
Procedure: as §1, §2

[13] = tested on: Fusobacterium nucleatum ATCC 10953
Procedure: as §1, §2

[14] = tested on: Candida albicans C.a 14 (wild-type)
Procedure: as §1, §2

[15] = tested on: Salmonella typhimurium ATCC 13311
Procedure: as §1, §2

[16] = tested on: Pseudomonas aeruginosa ATCC 11440
Procedure: as §1, §2

[17] = tested on: Campylobacter jejuni ATCC 33560
Procedure: as §1, §2

[18] = tested on: Serratia marcescens NCTC 10211
Procedure: as §1, §2

[19] = tested on: Eikenella corrodens (wild-type)
Procedure: as §1, §2

[20] = tested on: Yersinia enterococcus NCTC 11174
Procedure: as §1, §2

[21] = tested on: Acinetobacter lwoffii ATCC 15309
Procedure: as §1, §2

E. coli ATCC 25922 = tested on: E. coli ATCC 25922
Procedure: as §1, §2

[22] = tested on: Pseudomonas aeruginosa CF 509 mr (wild-type)
Procedure: as §1, §2

[23] = tested on: Acinetobacter junii ATCC 17908
Procedure: as §1, §2

[24] = tested on: E. coli (ESBL 3) Va 4425/01 (wild-type)
Procedure: as §1, §2

[25] = tested on: Staphylococcus aureus ATCC 33593 (MRSA)
Procedure: as §1, §2

Substance: human β-defensin-2 (GIGDPVTCLKSGAICHPVFCPRRYKQIGTCGLPGTKCCKKP; ends and bridges not checked; cysteine pairing not given here) [hβD2, recombinant hβD2]
- LD 90 = μg/ml 90% killing [1]: 0.39 µg/mL
- MBC = μg/ml 99.9% killing [1]: 1.56 µg/mL
- LD 90 = μg/ml 90% killing [2]: 100 µg/mL
- MBC = μg/ml 99.9% killing [2]: >100 µg/mL
- LD 90 = μg/ml 90% killing [3]: 50 µg/mL
- MBC = μg/ml 99.9% killing [3]: >100 µg/mL
- LD 90 = μg/ml 90% killing [4]: 12.5 µg/mL
- MBC = μg/ml 99.9% killing [4]: 25 µg/mL
- LD 90 = μg/ml 90% killing [5]: 12.5 µg/mL
- MBC = μg/ml 99.9% killing [5]: 25 µg/mL
- LD 90 = μg/ml 90% killing [6]: 6.25 µg/mL
- MBC = μg/ml 99.9% killing [6]: 25 µg/mL
- LD 90 = μg/ml 90% killing [7]: 12.5 µg/mL
- MBC = μg/ml 99.9% killing [7]: >100 µg/mL
- LD 90 = μg/ml 90% killing [8]: 1.56 µg/mL
- MBC = μg/ml 99.9% killing [8]: 25 µg/mL
- LD 90 = μg/ml 90% killing [9]: 6.25 µg/mL
- MBC = μg/ml 99.9% killing [9]: 50 µg/mL
- LD 90 = μg/ml 90% killing [10]: 100 µg/mL
- MBC = μg/ml 99.9% killing [10]: >100 µg/mL
- LD 90 = μg/ml 90% killing [11]: 100 µg/mL
- MBC = μg/ml 99.9% killing [11]: >100 µg/mL
- LD 90 = μg/ml 90% killing [12]: 25 µg/mL
- MBC = μg/ml 99.9% killing [12]: 50 µg/mL
- LD 90 = μg/ml 90% killing [13]: 3.125 µg/mL
- MBC = μg/ml 99.9% killing [13]: 3.125 µg/mL
- LD 90 = μg/ml 90% killing [14]: 12.5 µg/mL
- MBC = μg/ml 99.9% killing [14]: 25 µg/mL
- LD 90 = μg/ml 90% killing [15]: 1.56 µg/mL
- MBC = μg/ml 99.9% killing [15]: 6.25 µg/mL
- LD 90 = μg/ml 90% killing [16]: 12.5 µg/mL
- MBC = μg/ml 99.9% killing [16]: 12.5 µg/mL
- LD 90 = μg/ml 90% killing [17]: 3.125 µg/mL
- MBC = μg/ml 99.9% killing [17]: 6.25 µg/mL
- LD 90 = μg/ml 90% killing [18]: 50 µg/mL
- MBC = μg/ml 99.9% killing [18]: 100 µg/mL
- LD 90 = μg/ml 90% killing [19]: 50 µg/mL
- MBC = μg/ml 99.9% killing [19]: 50 µg/mL
- LD 90 = μg/ml 90% killing [20]: >100 µg/mL
- MBC = μg/ml 99.9% killing [20]: >100 µg/mL
- LD 90 = μg/ml 90% killing [21]: 0.39 µg/mL
- MBC = μg/ml 99.9% killing [21]: 0.78 µg/mL
- LD 90 = μg/ml 90% killing (E. coli ATCC 25922): 6.25 µg/mL
- MBC = μg/ml 99.9% killing (E. coli ATCC 25922): 12.5 µg/mL
- LD 90 = μg/ml 90% killing [22]: 12.5 µg/mL
- MBC = μg/ml 99.9% killing [22]: 25 µg/mL
- LD 90 = μg/ml 90% killing [23]: 3.125 µg/mL
- MBC = μg/ml 99.9% killing [23]: 12.5 µg/mL
- LD 90 = μg/ml 90% killing [24]: 6.25 µg/mL
- MBC = μg/ml 99.9% killing [24]: 12.5 µg/mL
- LD 90 = μg/ml 90% killing [25]: 100 µg/mL
- MBC = μg/ml 99.9% killing [25]: >100 µg/mL
